One assay concerns the target T1, BMP-2 (Homo sapiens, UniProt P12643).
T1 construct: purchased R&D Systems Inc. (U.S.A.)
T1 sequence (P12643 283-396): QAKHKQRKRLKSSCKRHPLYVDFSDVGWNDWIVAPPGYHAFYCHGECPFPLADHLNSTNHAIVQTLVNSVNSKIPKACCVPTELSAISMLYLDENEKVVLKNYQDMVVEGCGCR
As to the kind of experiment: Surface plasmon resonance BMP-2 competitive binding assay. As to conditions: 10 μg/mL pre-incubated with BMP-2 25 nM, applied to heparin-coated SPR chip. Here is the method:
Briefly, 20 mg heparin was biotinylated at free amine groups using 8.6 μM NHS-biotin in dimethyl sulfoxide, after which excess unreacted NHS-biotin was removed by passing the sample through two 7 kDa molecular weight cut-off Zeba spin desalting columns. […] Heparin oligosaccharides were used at a concentration of 10 μg/mL in HBS-EP 0.1% buffer (HBS-EP with 0.1% (v/v) Tween-20). […] The response was measured as a function of time at 25° C. R.U.s for the heparin surface were determined by subtracting the R.U. of the control (uncoated) flow channel from those of the heparin-biotin-coated flow channel. Representative sensorgrams from all competitive binding experiments may be found in supplementary information (FIG. 1). […] Data constitutes the mean±S.D. of three independent experiments.

The next assay deals with C2C12 cells. The assay can be described thus: Alkaline phosphatase (ALP) activity assay in C2C12 cells. The assay is classed as cell-based, murine. As to conditions: with BMP-2 100 ng/mL, 5 μg/mL, 3 days. Here is the method: C2C12 cells were maintained as described above and seeded at 2×10^4 cells/cm2 in tissue culture treated 24-well plates. The cells were cultured in treatment media for 3 days, after which total protein was extracted and ALP activity was determined. Briefly, cells were washed with PBS and total protein extracted with RIPA buffer containing a protease inhibitor cocktail. Total protein concentration was determined using the BCA assay, then 7.5 μg of total protein per condition was combined with p-nitrophenylphosphate (Thermo-Fisher). […] Data represents mean±S.D. of three independent experiments.

Consider dextran sulfate, for which the “percentage of BMP-2 sequestered in solution (reduction in response units vs. BMP-2 alone)” value on BMP-2 is given as “able to bind BMP-2 with high affinity”. In addition, in the assay on C2C12 cells, the “BMP-2-induced ALP activity” value is recorded as “inhibited BMP-2 bioactivity in vitro”.
